Columns and labels:
[1] = system: TNF-α; assay: ELISA of TNF-α in LPS-stimulated RAW 264.7 macrophages; format: cell-based, mouse
Procedure: RAW 264.7 cells were plated at a concentration of 10,000 cells/mL in 96 plates and allowed to grow overnight. For preventative anti-inflammatory treatment, Platin-A (10 μM), aspirin (10 μM), cisplatin (10 μM) and an equimolar ratio of cisplatin and aspirin (10 μM each) was incubated with the RAW cells for 6 h. Lipopolysaccharide (LPS) (100 ng/mL) was added and the cells were further incubated for 12 h. For therapeutic anti-inflammatory treatment, LPS (100 ng/mL) was added to the RAW cells and incubated for 6 h. Platin-A (10 μM), aspirin (10 μM), cisplatin (10 μM) and an equimolar ratio of cisplatin and aspirin (10 μM each) was then added to the cells and incubated for 12 h. ELISA was performed on the supernatants against the cytokines interleukin (IL)-6, IL-10, and TNF-α. Briefly, antibody coated plates were blocked with 10% FBS in PBS for 1 h at room temperature followed by 3 washes. RAW cell supernatants were incubated on the plates for 2 h at room temperature. This was immediately followed by washings and sequential incubations with the cytokine-biotin conjugate and streptavidin working solution. Finally, the substrate reagent containing 3,3′,5,5′-tetramethylbenzidine (100 μL) was added to each well, incubated for 15 min, the reaction was stopped by adding 50 μL H2SO4 (0.1 M). The absorbance was recorded at 450 nm using a BioTek Synergy HT well plate reader.

[2] = molecular target: T1, ovine COX-2 (Ovis aries, UniProt P79208); assay: In vitro COX inhibition assay (EIA), COX-2; format: biochemical; settings: ovine COX-2, EIA, 0.75-2 mM, aspirin as positive control
T1 construct: purchased Cayman Chemicals 560101
T1 sequence (P79208 17-603): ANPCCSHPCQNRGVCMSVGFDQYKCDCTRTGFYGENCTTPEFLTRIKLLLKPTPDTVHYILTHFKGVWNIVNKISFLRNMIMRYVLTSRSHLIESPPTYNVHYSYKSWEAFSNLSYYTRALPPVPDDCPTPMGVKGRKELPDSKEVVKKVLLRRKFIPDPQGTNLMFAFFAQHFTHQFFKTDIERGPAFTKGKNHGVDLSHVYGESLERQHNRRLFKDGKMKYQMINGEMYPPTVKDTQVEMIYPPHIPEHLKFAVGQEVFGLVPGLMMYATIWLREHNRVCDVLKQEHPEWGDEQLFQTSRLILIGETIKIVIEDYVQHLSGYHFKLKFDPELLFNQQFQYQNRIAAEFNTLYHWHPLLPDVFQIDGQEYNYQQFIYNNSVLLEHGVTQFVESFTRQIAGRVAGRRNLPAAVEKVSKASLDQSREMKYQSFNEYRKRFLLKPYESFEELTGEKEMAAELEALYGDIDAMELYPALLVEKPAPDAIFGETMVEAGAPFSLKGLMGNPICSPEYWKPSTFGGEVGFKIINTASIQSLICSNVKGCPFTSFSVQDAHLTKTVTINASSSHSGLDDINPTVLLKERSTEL
Procedure: An enzyme immunoassay (EIA) kit from Cayman Chemicals (catalogue number 560101) was used to assess the ability of Platin-A to inhibit ovine COX-1 and COX-2. COX inhibition assay was performed as per the manufacturer protocol. All stock solutions were prepared following manufactures instruction. This inhibition assay was carried out using a two-step process: COX reaction and EIA. COX reaction involved preparation of following samples.
(i) Background samples: COX-1 and COX-2 were inactivated by transferring 20 μL of each enzyme to an eppendorf tube and placing the tube in boiling water for 3 min. […] (ii) COX-1 or COX-2 100% initial activity samples: 950 μL of reaction buffer, 10 μL of heme, 10 μL of COX-1 or COX-2, and 20 μL of reaction buffer were added to each test tube. (iii) COX-1 or COX-2 inhibitor samples: 950 μL of reaction buffer, 10 μL of heme, 10 μL of COX-1 or COX-2 and 20 μL of COX-1 and COX-2 inhibitors under investigation, aspirin and Platin-A of different concentrations (0.25, 0.5, 0.75, 1, and 1.5 mM for COX-1; 0.75, 1, 1.25, 1.5, and 2 mM for COX-2) were added to each test tube.
All the samples were incubated for 5 min in water bath at 37° C. […]
For EIA, 100 μL of EIA buffer was added to non-specific binding well and 50 μL of EIA buffer to maximum binding wells. […] Absorbance was recorded at a wavelength of 410 nm using a plate reader.

CC(=O)Oc1ccccc1C(=O)[O][Pt]([NH2])([NH2])([OH])([Cl])[Cl] [Platin-A]
LPS-induced TNF-α production ([1]; preventive: pretreatment 10 μM 6 h, then LPS 12 h): significantly inhibited
levels of TNF-α ([1]; therapeutic: LPS activated macrophages then 10 μM for 12 h): significantly reduced
COX-2 inhibition [2]: very similar inhibition of both COX-1 and COX-2 as shown by aspirin

— patent US20170190726A9, “PRODRUG FOR RELEASE OF CISPLATIN AND CYCLOOXYGENASE INHIBITOR” (priority 2013, published 2017)
